The subject of one data set is NOD mice. Kind of data set: Diabetes onset in NOD mice after oral gavage. To be noted: amount identical to that used in Tofa-NLC; ongoing group. The class given is in vivo, mouse. The text has this:
FIG. 13. Oral administration of Tofa-NLC delays diabetes onset. We tested the effect of Tofa-NLC administration via oral gavage to two treatment groups: 1) 3 week-old NOD mice (corresponding to Pre-stage 1 in human patients) and 2) 10 week-old NOD mice (corresponding to advanced Stage 1 in human patients).
All these characteristics indicate that LNp would be a most valuable delivery system for the tissue selective actuation of a combination immunotherapy. We then began to define the effects of a transient administration of Tofa-NLC on diabetes development in NOD mice. […] We then tested the effect of Tofa-NLC administration via oral gavage to two treatment groups: 1) 3 week-old NOD mice (corresponding to Pre-stage 1 in human patients) and 2) 10 week-old NOD mice (corresponding to advanced Stage 1 in human patients). […] In particular, oral administration to 3-week-old NOD mice prevented onset of disease in 70% of the animals for more than 40 weeks.

Data set [1] relates to bone marrow derived dendritic cells (DC). Put plainly: DC maturation in response to LPS with soluble Tofa (flow cytometry, ELISA). The data set is classed as cell-based, mouse. On the procedure:
FIGS. 2A-2B. Jak inhibition impacts APC maturation. 2A, Representative graphs of surface expression of maturation markers on DC left untreated or exposed overnight to LPS+/−Tofa. 2B, Supernatants from DC cultures were tested for accumulation of the indicated cytokines by ELISA. n=3.
The latter two have been implicated in T1D development and inhibition of their accumulation would be a valuable effect.

For the next data set, the system named is Treg cells. Put plainly: T cell CFSE-Proliferation-Assay of Treg suppressive activity. To be noted: Treg at 2:1 or 4:1 T cell to Treg ratio; Tofa at 0.5 or 1 μM. The data set is classed as cell-based. On the procedure: FIG. 3. […] Results of CFSE-Proliferation-Assay conducted with the addition of Treg cells (at either 2:1 or 4:1 T cell to Treg ratio) and Tofa (at 0.5 or 1 μM). Values are normalized to the extent of proliferation measured with no Treg.

For data set [2] the following is noted: cited from earlier work.

In the case of Tofacitinib, the “therapeutic effect on diabetes development” value with NOD mice is given as “inferior (if not absent) therapeutic effect”. The “release of inflammatory cytokines IL-6, IL-1, TNF-α” value in data set [1] (DC culture supernatants, ELISA) is reported as “reduction in release of the prototypical inflammatory cytokines”. Moreover, in data set [1] (DC exposed to LPS +/- Tofa), the “up-regulation of CD80 and CD86 costimulatory molecules” value was “significant inhibition of the up-regulation of CD80 and CD86 costimulatory molecules”; the “up-regulation of MHC-II molecules” value was “did not prevent the up-regulation of MHC-II molecules”. Moreover, the “suppressive activity of Treg” value in the data set with Treg cells is “preservation of regulatory activity”.

As for Filgotinib, the “Solubility in Dimethyl Sulfoxide” value in data set [2] is recorded as 85 mg/mL.
